According to patent US20050203155A1, “Imidazole compounds and human cellular proteins casein kinase I alpha, delta and epsilon as targets for medical intervention against Hepatitis C Virus infections” (priority 2002, published 2005):

Columns and labels:
HCV RNA = assay: Metabolic labelling of HCV RNA in HCV replicon cell line 5-15 in the presence of actinomycin D; format: cell-based, Hepatitis C Virus; settings: 50 μM, replicon cell line 5-15, actinomycin D, overnight [33P]-orthophosphate labelling
Method: 1×10^6 Huh7-5-15 replicon cells and Huh-pcDNA3 cells were seeded into 10 cm culture plates and grown as described. After 24 hours cells were washed with phosphate-free medium and incubated in phosphate-free medium supplemented with 10% phosphate-free calf serum. Actinomycin D at a final concentration of 5 μg/ml was added to the cells together with the tested compounds at final concentrations of 10 and 50 μM. After 30 minutes of incubation cells were supplemented with 200 μCi ^33P-orthophosphate per dish and incubated over night. After cell lysis, RNA isolation was performed using the RNeasy mini kit (QIAGEN) according to recommendations given by the manufacturer. Northern blot was carried out according to standard procedures and autoradiography of the membrane was performed.

CKI isoforms α, δ and ε = assay: In-vitro kinase assay, GST-NS5A phosphorylation by Mono Q Peak I fractions of Huh-7 cells; format: biochemical, human; settings: CKI-enriched partially purified Mono Q fraction of Huh-7 cells, FIG. 6A
Method: Confluent 15 cm dishes of Huh-7 cells were lysed in 500 μl lysis buffer per dish containing 20 mM Tris (tris-(hydroxymethyl)-amino methane) pH 8.0, 10 mM NaF (sodium fluoride), 2 mM MgCl2 (Magnesium chloride), 1 mM DTT (dithiothreitol), 2 mM EGTA (ethylene glycol-bis(β-amino-ethyl ether)-N,N,N′,N′-tetraacetic acid), 1 mM PMSF (phenylmethylsulfonyl fluoride), 0.1% NP40 (Nonidet P-40), 10 μg/ml Aprotinin, 10 μg/ml Leupeptin, and 1 mM orthovanadate. Lysates were cleared by centrifugation (20 min, 13000 rpm, 4° C.) and filtered using a 0.45 μm syringe filter (Nalgene). This cleared material was further purified by a 1 ml Mono Q column (Amersham Biosciences) equilibrated with lysis buffer without additives. After washing the column, bound proteins were eluted with lysis buffer containing 1 M NaCl in a step gradient modus. Eluted proteins were collected in 1 ml fractions, systematically pooled, dialysed against 50 mM Tris pH 7.5, 10 mM NaF, 1 mM DTT, 0.01% Triton X-100 and stored at −80° C. Chromatography runs were performed on a AKTA explorer 10 system (Amersham Biosciences). Samples were subsequently assayed by in-vitro kinase assays and western blot analysis.
GST-NS5A immobilized to Glutathione Sepharose 4B beads (Amersham Biosciences) was washed twice with 500 μl kinase buffer (50 mM Tris pH 7.5, 10 mM MgCl2, 0.5 mM DTT). […]

HCV replicons = assay: Luciferase reporter assay of HCV replicons in the Huh-5-2 cell line; format: cell-based, Hepatitis C Virus; settings: for % activity (luciferase, replicon RNA levels): 3 days, Huh-5-2, percentage of DMSO controls
Text: (§1) The Huh-5-2 cell line carries the persistant bicistronic replicon I389luc-ubi-neo/NS3-3′/5.1 that expresses a firefly luciferase-ubiquitin-neomycin phosphotransferase fusion protein under the control of the HCV 5′ UTR and the NS3-5B HCV polyprotein that harbors the cell culture adaptive mutation of NK5.1. (J. Virol. 75:4614-4624, 2001) and is driven by the EMCV-IRES. Autonomously replicating HCV RNA replicons are detectable by Northern blot or via expression of the luciferase part of the fusion protein in a luciferase reporter assay. For luciferase reporter assays, Huh-5-2 cells were seeded at 2500 cells per well in 96 well plates in medium without G418. […] On day 3 after addition of compounds, Alamar Blue™ solution (Serotec), which contains a redox indicator, was added to the cells to measure cell proliferation and compound cytotoxicity. After incubation for 3-4 hours, fluorescence was monitored at the wavelengths of 560 nm and 590 nm with a Wallac 1420 multilabel counter. For the luciferase assay, the cells were subsequently washed twice with PBS without sodium hydrogen carbonate (Life Technologies GmbH, Karlsruhe), and luciferase activity was determined with the LucLite Plus Assay Kit (Packard Bioscience B.V.) according to the manufacturer's instructions in a Wallac 1450 Microbeta Luminescence counter.

Huh-5-2 replicon cells = assay: Alamar Blue toxicity assay in Huh-5-2 replicon cells; format: cell-based, human; settings: for % of cell viability: 3 days, Huh-5-2, percentage of DMSO controls
Text: as §1

C[S+]([O-])c1ccc(-c2nc(-c3cccc(I)c3)c(-c3ccncc3)[nH]2)cc1 (centres unmarked) [Compound 39, 4-[5-(3-Iodo-phenyl)-2-(4-methanesulfinyl-phenyl)-3H-imidazole-4-yl]-pyridine]
synthesis of HCV RNA (HCV RNA): reduced | inhibitory effect on NS5A-phosphorylating kinase activity present in the Peak I fractions (CKI isoforms α, δ and ε): potent inhibitor | % activity (luciferase, replicon RNA levels) (HCV replicons; 1.25 μM): 117% | % activity (luciferase, replicon RNA levels) (HCV replicons; 2.5 μM): 104% | % activity (luciferase, replicon RNA levels) (HCV replicons; 5 μM): 89% | % activity (luciferase, replicon RNA levels) (HCV replicons; 10 μM): 28% | % activity (luciferase, replicon RNA levels) (HCV replicons; 20 μM): 0% | IC50 (HCV replicons; Hepatitis C virus, 72 h, Huh-5-2, 3 days, read-out: IC50, replication of subgenomic HCV replicon RNA in the luciferase reporter assay): 9 µM | % of cell viability (Huh-5-2 replicon cells; 1.25 μM): 108% | % of cell viability (Huh-5-2 replicon cells; 2.5 μM): 105% | % of cell viability (Huh-5-2 replicon cells; 5 μM): 109% | % of cell viability (Huh-5-2 replicon cells; 10 μM): 114% | % of cell viability (Huh-5-2 replicon cells; 20 μM): 72% | Toxicity (Huh-5-2 replicon cells; up to a concentration of 10 μM, Huh-5-2): low
